pIC50: −log10 of the molar value. Counter-ions that a name gives are not always drawn.
The compounds below were run on JAK1-dependent STAT6 phosphorylation downstream of IL-13 stimulation in TF-1 human erythroleukemia cells (assay: cells). Conditions: TF-1, read-out: IL-13-pSTAT6 IC50.

How did the pIC50 turn out when Cc1cc(N(C)C)cc(C2CCCN2C(=O)c2ccc(Nc3nc4c(C5=CCN(C(=O)CCC(F)(F)F)CC5)cccn4n3)cc2)n1 (stereo not drawn) [Example 2-92, 1-[4-[2-[4-[2-[4-(dimethylamino)-6-methyl-2-pyridyl]pyrrolidine-1-carbonyl]anilino]-[1,2,4]triazolo[1,5-a]pyridin-8-yl]-3,6-dihydro-2H-pyridin-1-yl]-4,4,4-trifluoro-butan-1-one] was run?
The pIC50 was 7.68.

How did the pIC50 turn out when CN1CCCC2(CCCN(C(=O)c3ccc(Nc4nc5c(C6=CCN(C(=O)CCC(F)(F)F)CC6)cccn5n4)cc3)C2)C1 (stereo not drawn) [Example 2-93, 4,4,4-trifluoro-1-[4-[2-[4-(8-methyl-2,8-diazaspiro[5.5]undecane-2-carbonyl)anilino]-[1,2,4]triazolo[1,5-a]pyridin-8-yl]-3,6-dihydro-2H-pyridin-1-yl]butan-1-one] was run?
Its pIC50 is 8.33.

With CCOC(=O)N1CC=C(c2cccn3nc(Nc4ccc(C(=O)OC5CCN(C)CC5)cc4)nc23)CC1 [Example 2-94, ethyl 4-[2-[4-[(1-methyl-4-piperidyl)oxycarbonyl]anilino]-[1,2,4]triazolo[1,5-a]pyridin-8-yl]-3,6-dihydro-2H-pyridine-1-carboxylate] as the compound, how does the pIC50 read?
The pIC50 was 7.63.

How did the pIC50 turn out when O=C(CCC(F)(F)F)N1CC=C(c2cccn3nc(Nc4ccc(C(=O)N5CCN(Cc6ccccn6)CC5)cc4)nc23)CC1 [Example 2-95, 4,4,4-trifluoro-1-[4-[2-[4-[4-(2-pyridylmethyl)piperazine-1-carbonyl]anilino]-[1,2,4]triazolo[1,5-a]pyridin-8-yl]-3,6-dihydro-2H-pyridin-1-yl]butan-1-one] was run?
Its pIC50 is 8.37.

With CN(CCc1ccncc1)C(=O)c1ccc(Nc2nc3c(C4=CCN(C(=O)CCC(F)(F)F)CC4)cccn3n2)cc1 [Example 2-96, N-methyl-N-[2-(4-pyridyl)ethyl]-4-[[8-[1-(4,4,4-trifluorobutanoyl)-3,6-dihydro-2H-pyridin-4-yl]-[1,2,4]triazolo[1,5-a]pyridin-2-yl]amino]benzamide] as the compound, how does the pIC50 read?
Its pIC50 is 8.28.

With CN(C)C1CCN(C(=O)c2ccc(Nc3nc4c(C5=CCN(C(=O)CCC(F)(F)F)CC5)cccn4n3)cc2)CC1 [Example 2-97, 1-[4-[2-[4-[4-(dimethylamino)piperidine-1-carbonyl]anilino]-[1,2,4]triazolo[1,5-a]pyridin-8-yl]-3,6-dihydro-2H-pyridin-1-yl]-4,4,4-trifluoro-butan-1-one] as the compound, how does the pIC50 read?
The pIC50 was 7.86.

With CN1CCN(C(=O)c2ccc(Nc3nc4c(C5=CCN(C(=O)CCC(F)(F)F)CC5)cccn4n3)cc2)CC1 [Example 2-98, 4,4,4-trifluoro-1-[4-[2-[4-(4-methylpiperazine-1-carbonyl)anilino]-[1,2,4]triazolo[1,5-a]pyridin-8-yl]-3,6-dihydro-2H-pyridin-1-yl]butan-1-one] as the compound, how does the pIC50 read?
The pIC50 was 7.94.

CN1CCN(CCCNC(=O)c2ccc(Nc3nc4c(C5=CCN(C(=O)CCC(F)(F)F)CC5)cccn4n3)cc2)CC1 [Example 2-99, N-[3-(4-methylpiperazin-1-yl)propyl]-4-[[8-[1-(4,4,4-trifluorobutanoyl)-3,6-dihydro-2H-pyridin-4-yl]-[1,2,4]triazolo[1,5-a]pyridin-2-yl]amino]benzamide] was tested. Which pIC50 did it give?
Its pIC50 is 7.53.

With O=C(NCCN1CCC(O)CC1)c1ccc(Nc2nc3c(C4=CCN(C(=O)CCC(F)(F)F)CC4)cccn3n2)cc1 [Example 2-100, N-[2-(4-hydroxy-1-piperidyl)ethyl]-4-[[8-[1-(4,4,4-trifluorobutanoyl)-3,6-dihydro-2H-pyridin-4-yl]-[1,2,4]triazolo[1,5-a]pyridin-2-yl]amino]benzamide] as the compound, how does the pIC50 read?
The pIC50 was 7.07.

CN(C)CCN1CCN(C(=O)c2ccc(Nc3nc4c(C5=CCN(C(=O)CCC(F)(F)F)CC5)cccn4n3)cc2)CC1 [Example 2-102, 1-[4-[2-[4-[4-[2-(dimethylamino)ethyl]piperazine-1-carbonyl]anilino]-[1,2,4]triazolo[1,5-a]pyridin-8-yl]-3,6-dihydro-2H-pyridin-1-yl]-4,4,4-trifluoro-butan-1-one] was tested. Which pIC50 did it give?
Its pIC50 is 7.47.

With O=C(CCC(F)(F)F)N1CC=C(c2cccn3nc(Nc4ccc(C(=O)N5CCCC(c6cc7cccnc7[nH]6)C5)cc4)nc23)CC1 (stereo not drawn) [Example 2-103, 4,4,4-trifluoro-1-[4-[2-[4-[3-(1H-pyrrolo[2,3-b]pyridin-2-yl)piperidine-1-carbonyl]anilino]-[1,2,4]triazolo[1,5-a]pyridin-8-yl]-3,6-dihydro-2H-pyridin-1-yl]butan-1-one] as the compound, how does the pIC50 read?
The pIC50 was 6.84.

How did the pIC50 turn out when CN(Cc1ccccc1-c1cccnc1)C(=O)c1ccc(Nc2nc3c(C4=CCN(C(=O)CCC(F)(F)F)CC4)cccn3n2)cc1 [Example 2-104, N-methyl-N-[[2-(3-pyridyl)phenyl]methyl]-4-[[8-[1-(4,4,4-trifluorobutanoyl)-3,6-dihydro-2H-pyridin-4-yl]-[1,2,4]triazolo[1,5-a]pyridin-2-yl]amino]benzamide] was run?
Its pIC50 is 7.22.

With CN1CCC(N(C)C(=O)c2ccc(Nc3nc4c(C5=CCN(C(=O)C6CCOCC6)CC5)cccn4n3)cc2)CC1 [Example 2-105, N-methyl-N-(1-methyl-4-piperidyl)-4-[[8-[1-(tetrahydropyran-4-carbonyl)-3,6-dihydro-2H-pyridin-4-yl]-[1,2,4]triazolo[1,5-a]pyridin-2-yl]amino]benzamide] as the compound, how does the pIC50 read?
Its pIC50 is 6.43.

CNC(=O)N1CC=C(c2cccn3nc(Nc4ccc(C(=O)N(C)C5CCN(C)CC5)cc4)nc23)CC1 [Example 2-106, N-methyl-4-[2-[4-[methyl-(1-methyl-4-piperidyl)carbamoyl]anilino]-[1,2,4]triazolo[1,5-a]pyridin-8-yl]-3,6-dihydro-2H-pyridine-1-carboxamide; hydrochloride] was tested. Which pIC50 did it give?
The pIC50 was 5.07.

CN1CCC(N(C)C(=O)c2ccc(Nc3nc4c(C5=CCN(C(=O)C6CCOC6)CC5)cccn4n3)cc2)CC1 (stereo not drawn) [Example 2-107, N-methyl-N-(1-methyl-4-piperidyl)-4-[[8-[1-(tetrahydrofuran-3-carbonyl)-3,6-dihydro-2H-pyridin-4-yl]-[1,2,4]triazolo[1,5-a]pyridin-2-yl]amino]benzamide; hydrochloride] was tested. Which pIC50 did it give?
Its pIC50 is 6.37.

With CN1CCC(N(C)C(=O)c2ccc(Nc3nc4c(C5=CCN(C(=O)OCC(F)(F)F)CC5)cccn4n3)cc2)CC1 [Example 2-108, 2,2,2-trifluoroethyl 4-[2-[4-[methyl-(1-methyl-4-piperidyl)carbamoyl]anilino]-[1,2,4]triazolo[1,5-a]pyridin-8-yl]-3,6-dihydro-2H-pyridine-1-carboxylate] as the compound, how does the pIC50 read?
Its pIC50 is 8.01.

How did the pIC50 turn out when CCOC(=O)N1CC=C(c2cccn3nc(Nc4ccc(C(=O)NCCC5CCCN5C)cc4)nc23)CC1 (stereo not drawn) [Example 2-111, ethyl 4-[2-[4-[2-(1-methylpyrrolidin-2-yl)ethylcarbamoyl]anilino]-[1,2,4]triazolo[1,5-a]pyridin-8-yl]-3,6-dihydro-2H-pyridine-1-carboxylate] was run?
Its pIC50 is 7.65.

With CCOC(=O)N1CC=C(c2cccn3nc(Nc4ccc(C(=O)NCCN5CCNCC5)cc4)nc23)CC1 [Example 2-112, ethyl 4-[2-[4-(2-piperazin-1-ylethylcarbamoyl)anilino]-[1,2,4]triazolo[1,5-a]pyridin-8-yl]-3,6-dihydro-2H-pyridine-1-carboxylate] as the compound, how does the pIC50 read?
Its pIC50 is 6.63.

With CCOC(=O)N1CC=C(c2cccn3nc(Nc4ccc(C(=O)NC5CCCNC5)cc4)nc23)CC1 (stereo not drawn) [Example 2-113, ethyl 4-[2-[4-(3-piperidylcarbamoyl)anilino]-[1,2,4]triazolo[1,5-a]pyridin-8-yl]-3,6-dihydro-2H-pyridine-1-carboxylate] as the compound, how does the pIC50 read?
Its pIC50 is 7.01.

How did the pIC50 turn out when CCOC(=O)N1CC=C(c2cccn3nc(Nc4ccc(C(=O)NCC5CCCCN5)cc4)nc23)CC1 (stereo not drawn) [Example 2-114, ethyl 4-[2-[4-(2-piperidylmethylcarbamoyl)anilino]-[1,2,4]triazolo[1,5-a]pyridin-8-yl]-3,6-dihydro-2H-pyridine-1-carboxylate] was run?
The pIC50 was 7.16.

CCOC(=O)N1CC=C(c2cccn3nc(Nc4ccc(C(=O)N5CC(C(=O)N(C)C)C5)cc4)nc23)CC1 [Example 2-115, ethyl 4-[2-[4-[3-(dimethylcarbamoyl)azetidine-1-carbonyl]anilino]-[1,2,4]triazolo[1,5-a]pyridin-8-yl]-3,6-dihydro-2H-pyridine-1-carboxylate] was tested. Which pIC50 did it give?
Its pIC50 is 7.72.

With CCOC(=O)N1CC=C(c2cccn3nc(Nc4ccc(C(=O)N(C)CCc5ccncc5)cc4)nc23)CC1 [Example 2-119, ethyl 4-[2-[4-[methyl-[2-(4-pyridyl)ethyl]carbamoyl]anilino]-[1,2,4]triazolo[1,5-a]pyridin-8-yl]-3,6-dihydro-2H-pyridine-1-carboxylate] as the compound, how does the pIC50 read?
Its pIC50 is 7.62.

With CCOC(=O)N1CC=C(c2cccn3nc(Nc4ccc(C(=O)N5CC6CN(C)CC(C5)O6)cc4)nc23)CC1 [Example 2-123, ethyl 4-[2-[4-(7-methyl-9-oxa-3,7-diazabicyclo[3.3.1]nonane-3-carbonyl)anilino]-[1,2,4]triazolo[1,5-a]pyridin-8-yl]-3,6-dihydro-2H-pyridine-1-carboxylate] as the compound, how does the pIC50 read?
The pIC50 was 7.31.

How did the pIC50 turn out when CCOC(=O)N1CC=C(c2cccn3nc(Nc4ccc(C(=O)NCc5cc(C)ccn5)cc4)nc23)CC1 [Example 2-124, ethyl 4-[2-[4-[(4-methyl-2-pyridyl)methylcarbamoyl]anilino]-[1,2,4]triazolo[1,5-a]pyridin-8-yl]-3,6-dihydro-2H-pyridine-1-carboxylate] was run?
Its pIC50 is 7.41.

CCOC(=O)N1CC=C(c2cccn3nc(Nc4ccc(C(=O)N5CCC(CN)C5)cc4)nc23)CC1 (stereo not drawn) [Example 2-130, ethyl 4-[2-[4-[3-(aminomethyl)pyrrolidine-1-carbonyl]anilino]-[1,2,4]triazolo[1,5-a]pyridin-8-yl]-3,6-dihydro-2H-pyridine-1-carboxylate] was tested. Which pIC50 did it give?
The pIC50 was 6.65.

With O=C(CCC(F)(F)F)N1CC=C(c2cccn3nc(Nc4ccc(C(=O)N5CCC6(CCNC6)CC5)cc4)nc23)CC1 [Example 2-136, 1-[4-[2-[4-(2,8-diazaspiro[4.5]decane-8-carbonyl)anilino]-[1,2,4]triazolo[1,5-a]pyridin-8-yl]-3,6-dihydro-2H-pyridin-1-yl]-4,4,4-trifluoro-butan-1-one] as the compound, how does the pIC50 read?
Its pIC50 is 6.79.

With O=C(NC1CCCNC1)c1ccc(Nc2nc3c(C4=CCN(C(=O)CCC(F)(F)F)CC4)cccn3n2)cc1 (stereo not drawn) [Example 2-137, N-(3-piperidyl)-4-[[8-[1-(4,4,4-trifluorobutanoyl)-3,6-dihydro-2H-pyridin-4-yl]-[1,2,4]triazolo[1,5-a]pyridin-2-yl]amino]benzamide] as the compound, how does the pIC50 read?
Its pIC50 is 7.10.
